# Literature values as cited in US11633350B2, “Hypotonic microbicidal formulations and methods of use” (priority 2014, dated 2023).
# What was measured:
# HIV = conditions: PK/PD models
plasma concentration associated with 90% protection (EC90) (HIV),SMILES,systemic (blood) TFV peak (Cmax) concentration (after a single oral TDF dose),time to protection (in vivo),"time to achieve protective concentrations of TFV-DP in tissue (in vivo, po)"
–,"CC(C)OC(=O)OCOP(=O)(CO[C@H](C)Cn1cnc2c(N)ncnc21)OCOC(=O)OC(C)C.O=C(O)/C=C/C(=O)O [TDF, 2,4,6,8-Tetraoxa-5-phosphanonanedioic acid, 5-[[(1R)-2-(6-amino-9H-purin-9-yl)-1-methylethoxy]methyl]-, bis(1-methylethyl) ester, 5-oxide, (2E)-2-butenedioate (1:1)]",350 ng/mL,3 days,one week
0.107 µg/mL,"C[C@H](Cn1cnc2c(N)ncnc21)OCP(=O)(O)O [tenofovir, (R)-9-(2-phosphonylmethoxypropyl)adenine]",–,–,–
